For data set [1] the following is noted: 101.33 kPa, Liquid, Vibrating tube method.
Data set [2] in a line: activity coefficient (dimensionless); of the first substance listed, at infinite dilution; xn = mol fraction of the nth substance listed. The conditions noted are these: 101 kPa, Liquid, Chromatography, x1 = 0.

± gives the expanded uncertainty stated by the source.

The term mass density denotes the mass of a sample divided by its volume. For `CCCC[N+]1(C)CCCC1.O=C1O[B-]2(OC1=O)OC(=O)C(=O)O2` [1-butyl-1-methylpyrrolidinium bis(oxalato)borate], the mass density turned out to be 1235.34 ± 0.44 kg/m3 in data set [1] (328.15 K); 1231.29 ± 0.44 kg/m3 in data set [1] (333.15 K); 1227.23 ± 0.43 kg/m3 in data set [1] (338.15 K); 1223.19 ± 0.43 kg/m3 in data set [1] (343.15 K); 1219.17 ± 0.43 kg/m3 in data set [1] (348.15 K); 1215.17 ± 0.42 kg/m3 in data set [1] (353.15 K).
For the compound `CCCC[N+]1(C)CCCC1.N#C[B-](C#N)(C#N)C#N` [1-butyl-1-methylpyrrolidinium tetracyanoborate], the mass density is on record as 986.48 ± 0.29 kg/m3 in data set [1] (283.15 K); 979.5 ± 0.29 kg/m3 in data set [1] (293.15 K); 972.59 ± 0.29 kg/m3 in data set [1] (303.15 K); 965.77 ± 0.29 kg/m3 in data set [1] (313.15 K); 959.04 ± 0.29 kg/m3 in data set [1] (323.15 K); 952.4 ± 0.29 kg/m3 in data set [1] (333.15 K). Besides, the mass density in data set [1] (343.15 K) came to 945.83 ± 0.29 kg/m3.
With `COCCOC` [1,2-dimethoxyethane] + CCCC[N+]1(C)CCCC1.O=C1O[B-]2(OC1=O)OC(=O)C(=O)O2, the activity coefficient in data set [2] (333.15 K) came to 1.16 ± 0.05; in data set [2] (343.15 K), 1.2 ± 0.06; in data set [2] (353.15 K) it was 1.23 ± 0.06; in data set [2] (363.15 K), 1.26 ± 0.06; in data set [2] (373.15 K), 1.29 ± 0.06.
For `CCCO` [propan-1-ol] + CCCC[N+]1(C)CCCC1.N#C[B-](C#N)(C#N)C#N, the activity coefficient stood at 1.53 ± 0.07 in data set [2] (318.15 K); 1.46 ± 0.07 in data set [2] (323.15 K); 1.34 ± 0.06 in data set [2] (333.15 K); 1.24 ± 0.06 in data set [2] (343.15 K); 1.15 ± 0.05 in data set [2] (353.15 K).
Take `C1CCCCC1` [cyclohexane] + CCCC[N+]1(C)CCCC1.O=C1O[B-]2(OC1=O)OC(=O)C(=O)O2: the activity coefficient in data set [2] (333.15 K) came to 20.2 ± 1; in data set [2] (343.15 K), 17.9 ± 0.9; in data set [2] (353.15 K), 16.2 ± 0.8; in data set [2] (363.15 K), 14.7 ± 0.8; in data set [2] (373.15 K), 13.6 ± 0.7.
`Cc1cccc(C)c1` [1,3-dimethylbenzene] + CCCC[N+]1(C)CCCC1.O=C1O[B-]2(OC1=O)OC(=O)C(=O)O2: the activity coefficient in data set [2] (333.15 K) was 3.96 ± 0.2; in data set [2] (343.15 K), 3.84 ± 0.2; in data set [2] (353.15 K) it was 3.73 ± 0.19; in data set [2] (363.15 K), 3.64 ± 0.19; in data set [2] (373.15 K) it was 3.55 ± 0.18.
The like results for `CC1CCCCC1` [methylcyclohexane] + CCCC[N+]1(C)CCCC1.O=C1O[B-]2(OC1=O)OC(=O)C(=O)O2 were, in that order, 30 ± 1.6, 26.5 ± 1.4, 24 ± 1.2, 21.6 ± 1.1 and 19.9 ± 1.
For `FC(F)(F)C(Cl)Br` (stereo not drawn) [1-bromo-1-chloro-2,2,2-trifluoroethane] + CCCC[N+]1(C)CCCC1.O=C1O[B-]2(OC1=O)OC(=O)C(=O)O2, in that order: 1.61 ± 0.08, 1.66 ± 0.08, 1.72 ± 0.09, 1.77 ± 0.09 and 1.82 ± 0.09.
For `C1CCCCC1` [cyclohexane] + CCCC[N+]1(C)CCCC1.N#C[B-](C#N)(C#N)C#N, the activity coefficient was found to be 8.51 ± 0.44 in data set [2] (318.15 K); 8.26 ± 0.43 in data set [2] (323.15 K); 7.83 ± 0.4 in data set [2] (333.15 K); 7.44 ± 0.38 in data set [2] (343.15 K); 7.11 ± 0.37 in data set [2] (353.15 K).

These data come from the NIST ThermoML archive (doi:10.1016/j.jct.2012.09.017).
